Values quoted from earlier work in article PMC5335257, “Promoting in vivo remyelination with small molecules: a neuroreparative pharmacological treatment for Multiple Sclerosis” (Scientific Reports, 2017).

Assays:
[1] = tested on: PDE7; set-up: method as in PMID 24437940; conditions: read-out: PDE7 inhibition IC50; cited from earlier work
[2] = tested on: spinal cord injury models; set-up: method as in PMID 21297958, PMID 23077723; conditions: spinal cord injury models (as well as EAE); cited from earlier work
[3] = set-up: method as in PMID 23077723, PMID 25264825; conditions: cited from earlier work

For c1ccc(-c2n/c(=N/CCN3CCOCC3)sn2-c2ccccc2)cc1 [VP3.15], the IC50 [1] is given as 1590 nM, the immunomodulatory effect [2] is given as “immunomodulatory effect” and the emetic side effects [3] is given as “without emetic side effects”.
